For assay [1], the system named is gene encoding carbonic anhydrase IX. The assay is described as follows: Transcriptomic analysis (RT-qPCR) of the carbonic anhydrase IX gene in hair bulbs cultured ex vivo. The note with it: whole hair bulbs, 4 hours incubation, normoxic conditions (21% dioxygen), compared with hypoxic conditions (3% dioxygen). It counts as cell-based, human. An excerpt:
A second evaluation process may consist in carrying out a transcriptomic analysis of carbonic anhydrase IX, of which the expression of the corresponding gene is modified by a hypoxic signal, using the RT-qPCR technique, on keratin materials, for example on in vitro cultures of keratinocytes or hair bulbs isolated by microdissection and placed in culture ex vivo, under hypoxic conditions, and under normoxic conditions in the presence or absence of said active agent(s) to be tested, in order to study whether the active agent(s) is (are) capable of mimicking a hypoxic state.
This second process consists in carrying out a transcriptomic analysis of the gene encoding carbonic anhydrase IX, the expression of which is modified by a hypoxic signal, using the RT-qPCR technique, on hair bulbs isolated by microdissection at the level of the human scalp hypodermis and placed in culture ex vivo for 4 hours either under hypoxic conditions (3% dioxygen) or at 21% dioxygen, in the absence (control) or in the presence of diethyl pyridine-2,4 dicarboxylate.

The test system of a further assay is HIF1-alpha protein. Description: Western blotting of the level of expression/stabilization of the HIF1-alpha protein in outer sheath keratinocytes. It counts as cell-based, human. The settings on record: keratinocyte cultures under normoxic conditions (21% oxygen). An excerpt:
This third example consists in carrying out an analysis of the level of expression/stabilization of the HIF1-alpha protein using the Western blotting technique as a basis. To summarise, under normoxic conditions, the HIF1-alpha protein is hydroxylated on a proline residue (reaction catalyzed by a prolyl hydroxylase), ubiquitinylated and then degraded by the proteasome. Under hypoxic conditions, the HIF1-alpha protein is not hydroxylated and its expression level is maintained. To characterize the effect of diethyl pyridine-2,4-dicarboxylate on the level of expression/stabilization of HIF1-alpha, a protein extract was prepared on cultures of keratinocytes derived from the outer sheath of human hair follicles maintained and placed in culture under hypoxic conditions or under normoxic conditions, in the absence or presence of diethyl pyridine-2,4-dicarboxylate. […] In this regard, it may be stated that the effect of diethyl pyridine-2,4-dicarboxylate under normoxic conditions mimics the effect of hypoxic conditions on the expression/stabilization of the HIF1-alpha protein.

The test system of assay [2] is keratinocytes from the outer sheath of human hair follicles. Description: CFE (Colony-forming efficiency) test for keratinocytes (including epithelial stem cells). Type of assay: cell-based. The settings on record: 21% dioxygen, 50 to 500 μM, 10 days culture. An excerpt:
It is possible to optionally add to these two evaluation processes a process aimed at establishing the impact of the active agent(s) capable of mimicking hypoxia on the quality of the epithelial stem cells. To do this, a CFE (Colony-forming efficiency) test can be carried out for keratinocytes (including epithelial stem cells), consisting in observing, respectively, under hypoxic conditions and under normoxic conditions in the presence or absence of active agent(s), the impact of the presence of the active agent(s) on the frequency of the cells capable of generating a cell clone within a given population, and also on the clonal morphology obtained, so as to thus establish their participation in the preservation of the functionality of the epithelial stem cells treated with the active agent(s). […]
Next, the cells of the outer epithelial sheath thus extracted from the hair follicles and dissected are subsequently seeded in a proportion of 1000 cells/culture dish under CFE conditions, on a layer of irradiated 3T3 fibroblasts. […] At the end of the clonogenic culture and after fixing (via 70% ethanol) and staining (incubation with eosin, rinsing and then incubation with BlueRAL 555) of the cell clones obtained, the morphology of the clones and of the cells making up these clones is analyzed.

“Also recorded” adds a separate entry of the source.

For the compound `CCOC(=O)c1ccnc(C(=O)OCC)c1` [diethyl pyridine-2,4-dicarboxylate], in assay [1], the “expression of carbonic anhydrase 9 (molecular profile)” value is listed as “induces a molecular profile similar to that induced by hypoxia”. Besides, the “level of expression/stabilization of the HIF1-alpha protein” value in the assay on HIF1-alpha protein is on record as “induces an increase in the amount of protein detected”. Moreover, the number of clones result in assay [2] (vs 21% dioxygen control conditions) is “does not significantly decrease”. The clonal morphology entry in assay [2] (vs untreated 21% dioxygen control) was “less diffuse and less dense than the controls; also recorded: generates clones similar to those obtained under hypoxic conditions”.

The values are drawn from patent publication US9658212B2, “Process for evaluating active agent(s) capable of preserving the functionality of epithelial stem cells” (L'OREAL, priority 2012, dated 2017).
